Literature values as cited in EP4209496A1, “NOVEL FLUORESCENT BODIPY COMPOUNDS DISPLAYING ABSORPTION AND EMISSION IN THE NIR REGION” (Université de Strasbourg, priority 2022, dated 2023).
Read-outs that look alike come from different tables or passages of the source.

Structure (SMILES) | λem (solvent: biological serum) [nm] | φf (solvent: biological serum) [%] | λem (solvent: PBS buffer) [nm] | φf (solvent: PBS buffer) [%]
CC1(C)C(=CC=C2CCCC(C=CC3=[N+](CCCCCC(=O)[O-])c4ccc(S(=O)(=O)[O-])cc4C3(C)C)=C2Oc2ccc(S(=O)(=O)[O-])cc2)N(CCCCS(=O)(=O)[O-])c2ccc(S(=O)(=O)[O-])cc21.[Na+].[Na+].[Na+].[Na+] [IRDye800CW] | 789 | 12 | – | –
CN(C)c1ccc2nc3ccc(=[N+](C)C)cc-3sc2c1 [Methylene blue] | 686 | 10 | – | –
CCN1C(=CC=CC=CC=CC2=[N+](CCCCCC(=O)O)c3ccc(S(=O)(=O)O)cc3C2(C)C)C(C)(C)c2cc(S(=O)(=O)[O-])ccc21 [Cy7] | – | – | 774 | 28
CC1(C)C(/C=C/C=C/C=C/C=C2\N(CCCCS(=O)(=O)O)c3ccc4ccccc4c3C2(C)C)=[N+](CCCCS(=O)(=O)[O-])c2ccc3ccccc3c21 [Indocyanine green] | 822 | 9 | – | –
